{"source": "BindingDB's records for doi:10.1021/acs.jnatprod.0c01182", "about": "(Chinese Academy of Sciences, 2021)", "key": {"[1]": {"test": "Reversal of P-gp-mediated multidrug resistance in human KB/VCR cells assessed as potentiation of vincristine-induced antiproliferative activity by measuring vincristine IC50 at 20 uM measured after 72 hrs by CCK8 assay (Rvb = 0.78 uM)"}, "[2]": {"test": "Reversal of P-gp-mediated multidrug resistance in human KB/VCR cells assessed as potentiation of vincristine-induced antiproliferative activity by measuring vincristine IC50 at 2 uM measured after 72 hrs by CCK8 assay (Rvb = 0.51 uM)"}}}
{"molecule": "CC(=O)O[C@@H]1[C@@H]2[C@@H](OC(C)=O)[C@]3(OC2(C)C)[C@H](C)CC[C@H](OC(C)=O)[C@@]3(C)[C@@H]1OC(=O)c1ccccc1", "values": [{"measurement": "IC50", "setting": "[1]", "result": "< 8", "unit": "nM"}, {"measurement": "IC50", "setting": "[2]", "result": 200, "unit": "nM"}]}
{"molecule": "CC(=O)OC[C@]12[C@H](OC(C)=O)C(=O)[C@@H]3[C@@H](OC(C)=O)[C@]1(OC3(C)C)[C@H](C)[C@@H](O)[C@H](OC(C)=O)[C@@H]2OC(C)=O", "values": [{"measurement": "IC50", "setting": "[1]", "result": 390, "unit": "nM"}, {"measurement": "IC50", "setting": "[2]", "result": 550, "unit": "nM"}]}
{"molecule": "CC(=O)OC[C@]12[C@H](OC(C)=O)C(=O)[C@@H]3[C@@H](O)[C@]1(OC3(C)C)[C@H](C)[C@@H](O)[C@H](OC(C)=O)[C@@H]2OC(C)=O", "values": [{"measurement": "IC50", "setting": "[1]", "result": 530, "unit": "nM"}, {"measurement": "IC50", "setting": "[2]", "result": 500, "unit": "nM"}]}
{"molecule": "CC(=O)O[C@@H]1[C@H]2[C@H](O)[C@H](OC(=O)c3ccccc3)[C@]3(C)[C@@H](OC(C)=O)[C@H](O)C[C@@H](C)[C@@]13OC2(C)C", "values": [{"measurement": "IC50", "setting": "[1]", "result": 310, "unit": "nM"}, {"measurement": "IC50", "setting": "[2]", "result": 430, "unit": "nM"}]}
{"molecule": "CC(=O)OC[C@]12[C@H](OC(C)=O)C(=O)[C@@H]3[C@@H](OC(C)=O)[C@]1(OC3(C)C)[C@H](C)C[C@H](O)[C@@H]2OC(C)=O", "values": [{"measurement": "IC50", "setting": "[1]", "result": 330, "unit": "nM"}, {"measurement": "IC50", "setting": "[2]", "result": 480, "unit": "nM"}]}
{"molecule": "CCCCCC(=O)O[C@@H]1[C@@H]2[C@@H](OC(C)=O)[C@]3(OC2(C)C)[C@H](C)C[C@@H](OC(C)=O)[C@H](OC(C)=O)[C@@]3(C)[C@H]1OC(=O)c1ccccc1", "values": [{"measurement": "IC50", "setting": "[1]", "result": 21, "unit": "nM"}, {"measurement": "IC50", "setting": "[2]", "result": 350, "unit": "nM"}]}
{"molecule": "CC(=O)OC[C@]12[C@H](OC(C)=O)C(=O)[C@@H]3[C@@H](O)[C@]1(OC3(C)C)[C@H](C)[C@@H](OC(C)=O)[C@H](OC(C)=O)[C@@H]2OC(C)=O", "values": [{"measurement": "IC50", "setting": "[1]", "result": 260, "unit": "nM"}, {"measurement": "IC50", "setting": "[2]", "result": 470, "unit": "nM"}]}
{"molecule": "CC(=O)O[C@H]1[C@@H]2[C@@H](OC(C)=O)[C@]3(OC2(C)C)[C@H](C)C[C@@H](OC(C)=O)[C@H](OC(C)=O)[C@@]3(C)[C@H]1OC(=O)c1ccccc1", "values": [{"measurement": "IC50", "setting": "[1]", "result": 56, "unit": "nM"}, {"measurement": "IC50", "setting": "[2]", "result": 190, "unit": "nM"}]}
{"molecule": "CC(=O)O[C@H]1[C@@H]2[C@@H](OC(=O)/C=C/c3ccccc3)[C@]3(OC2(C)C)[C@H](C)C[C@@H](OC(C)=O)[C@H](OC(C)=O)[C@@]3(C)[C@H]1OC(=O)c1ccccc1", "values": [{"measurement": "IC50", "setting": "[1]", "result": "< 8", "unit": "nM"}, {"measurement": "IC50", "setting": "[2]", "result": 100, "unit": "nM"}]}
{"molecule": "CC(=O)O[C@@H]1[C@@H]2[C@@H](OC(C)=O)[C@]3(OC2(C)C)[C@H](C)C[C@@H](OC(C)=O)[C@H](OC(C)=O)[C@@]3(C)[C@@H]1OC(=O)c1ccccc1", "values": [{"measurement": "IC50", "setting": "[1]", "result": 22, "unit": "nM"}, {"measurement": "IC50", "setting": "[2]", "result": 150, "unit": "nM"}]}
{"molecule": "CC(=O)O[C@@H]1[C@@H]2[C@@H](OC(C)=O)[C@]3(OC2(C)C)[C@H](C)C[C@H](OC(=O)/C=C/c2ccccc2)[C@H](OC(C)=O)[C@@]3(C)[C@@H]1OC(=O)c1ccccc1", "values": [{"measurement": "IC50", "setting": "[1]", "result": 26, "unit": "nM"}, {"measurement": "IC50", "setting": "[2]", "result": 100, "unit": "nM"}]}
{"molecule": "CC(=O)O[C@H]1[C@@H]2[C@@H](OC(=O)c3cccnc3)[C@]3(OC2(C)C)[C@H](C)C[C@H](OC(C)=O)[C@@H](OC(C)=O)[C@@]3(C)[C@H]1OC(=O)c1ccccc1", "values": [{"measurement": "IC50", "setting": "[1]", "result": "< 8", "unit": "nM"}, {"measurement": "IC50", "setting": "[2]", "result": 64, "unit": "nM"}]}
{"molecule": "CC(=O)O[C@H]1CC[C@@H](C)[C@]23OC(C)(C)[C@H](C[C@H](OC(=O)c4ccccc4)[C@]12C)[C@H]3OC(C)=O", "values": [{"measurement": "IC50", "setting": "[1]", "result": 15, "unit": "nM"}, {"measurement": "IC50", "setting": "[2]", "result": 210, "unit": "nM"}]}
{"molecule": "CC(=O)O[C@@H]1[C@@H]2[C@@H](OC(C)=O)[C@]3(OC2(C)C)[C@H](C)CC[C@H](OC(C)=O)[C@@]3(C)[C@H]1OC(=O)c1ccccc1", "values": [{"measurement": "IC50", "setting": "[1]", "result": 34, "unit": "nM"}, {"measurement": "IC50", "setting": "[2]", "result": 240, "unit": "nM"}]}
{"molecule": "CC(=O)O[C@@H]1C[C@@H](C)[C@]23OC(C)(C)[C@H]([C@@H](O)[C@H](OC(=O)c4ccccc4)[C@@]2(C)[C@H]1OC(C)=O)[C@H]3OC(=O)/C=C/c1ccccc1", "values": [{"measurement": "IC50", "setting": "[2]", "result": 48, "unit": "nM"}]}
{"molecule": "CC(=O)O[C@H]1[C@@H]2[C@@H](OC(=O)/C=C/c3ccccc3)[C@]3(OC2(C)C)[C@H](C)C[C@H](O)[C@H](OC(C)=O)[C@@]3(C)[C@H]1OC(=O)c1ccccc1", "values": [{"measurement": "IC50", "setting": "[2]", "result": 37, "unit": "nM"}]}
{"molecule": "CC(=O)O[C@H]1CC[C@@H](C)[C@]23OC(C)(C)[C@H](C[C@H](OC(=O)c4ccccc4)[C@]12C)[C@H]3OC(=O)c1ccccc1", "values": [{"measurement": "IC50", "setting": "[2]", "result": 100, "unit": "nM"}]}
{"molecule": "CC(=O)O[C@@H]1C[C@@H](C)[C@]23OC(C)(C)[C@H](C[C@H](OC(=O)c4ccccc4)[C@]2(C)[C@H]1OC(C)=O)[C@H]3OC(=O)/C=C/c1ccccc1", "values": [{"measurement": "IC50", "setting": "[2]", "result": 58, "unit": "nM"}]}
{"molecule": "COc1cc2c(cc1OC)CN(CCc1ccc(-n3nnc(-c4cc(OC)c(OC)cc4NC(=O)c4cc(=O)c5ccccc5o4)n3)cc1)CC2", "note": "[Encequidar]", "values": [{"measurement": "IC50", "setting": "[2]", "result": 16, "unit": "nM"}]}
